Measurements from patent US8178530B2, “Imidazolopyrazine compounds useful for the treatment of degenerative and inflammatory diseases” (Janssen Pharmaceutica NV, priority 2006, dated 2012).

Key:
MMP1 expression by SFs = test: 'MMP assay': MMP1 expression by 'complex trigger' activated synovial fibroblasts (MMP1 ELISA); format: cell-based, human; settings: Homo sapiens, Fibroblast, RASFs, 48 hrs
[1] = system: TNFα release by human PBMCs; test: Cytokine release by LPS-stimulated human PBMCs (TNFα ELISA); format: cell-based; settings: PBMC, LPS 1 μg/mL, 24 hr
Method: Human peripheral blood mononuclear cells (PBMCs) are isolated from “buffy coats” prepared from the blood of healthy volunteers, isolated essentially according to method of Bøyum (1984). In brief, buffy coat is diluted 1:1 with 1×PBS (Gibco) and 30 mL is carefully put on top of 20 mL Lymphoprep™ (Lucron Bioproducts) in 50 mL Falcon tubes. After centrifugation (35 min, 400 g, 18° C.) the mononuclear cells are collected from the white interphase and washed 3 times with 1×PBS by resuspending and centrifugation (10 min, 200 g). Isolated PBMCs are finally resuspended in RPMI 1640 (Cat. No. 21875, Gibco) that is supplemented with 10% heat-inactivated FBS (Hyclone).
For the assay PBMCs are seeded at 2.5E6 cells/mL in 160 μL in 96-well plates (Nunc). Serial dilution of the test compounds are made first in DMSO (Sigma) and then diluted 50-fold in M199 medium (Gibco) containing 1% heat-inactivated FBS. Compounds are further 1/10 diluted in the assay plates to obtain final DMSO concentration of 0.2%. Cells are preincubated with the compounds for 1 hr at 37° C., 5% CO2. Then, cells are stimulated with LPS (Escherichia coli serotype 026:B6, Cat. No. L2654, Sigma) that is added in a volume of 20 μL to a final concentration of 1 μg/mL and cells are further cultured for 24 hr. The plates are centrifuged and the supernatant is collected and stored at −80° C. until analysis of appropriate dilutions in ELISAs.
The following 384-well chemiluminescent ELISA protocol was developed to measure TNFα levels in the supernatant: White Lumitrac 600 384-well plates (Greiner) are coated with (40 μL/well) anti-TNFα capture antibody (Cat. No. 551220, BD Pharmingen) that is diluted to 1 μg/mL in 1×PBS (Gibco). After overnight incubation at 4° C., plates are washed with 1×PBS (80 g NaCl, 2 g KCl (Sigma), 11.5 g Na2HPO4.7H2O and 2 g KH2PO4 in 10 L milliQ; pH 7.4) and blocked with 100 μL/well buffer B (1×PBS containing 1% BSA (Sigma), 5% sucrose (Sigma) and 0.05% NaN3 (Sigma)). After 4 hr incubation at RT, blocking buffer is removed and plates are washed once with PBST (1×PBS with 0.05% Tween-20 (Sigma)). Then, 40 μL of sample is transferred to the ELISA plates and plates are incubated at 4° C. Next day, plates are washed 3 times (twice with PBST and once with PBS) and 35 μL/well biotinylated anti-TNFα antibody (Cat. No. 554511, BD Pharmingen) diluted first to a concentration of 250 ng/ml in buffer D (1×PBS with 1% BSA) is added. After 2 h of incubation at RT, plates are washed as described above and 35 μL/well of a 1/2000 dilution of streptavidin-HRP conjugate (Cat. No. SNN2004, Biosource) in buffer D is added. After 45 min, plates are washed as described above and incubated for 5 min with 50 μL/well BM Chemiluminescence ELISA Substrate POD (Roche). Readout is performed on the Luminoscan Ascent Luminometer (Labsystems) with an integration time of 100 msec delivering raw data (RLU: relative luminescence units). The following controls are included in the experiments, a maximal signal control, in which the cells are activated by LPS but only the 0.2% DMSO vehicle (and thus no compound) is added. This control indicates the maximal level of TNFα that can be achieved in the test. A minimal signal control is also included in these experiments. Here, cells are not triggered. This control returns the basal TNFα levels produced by the PBMCs. The percent inhibition (PIN) of the TNFα release, achieved by the compounds is then calculated based on the RLU data returned by the ELISA with following formula: 100−[((TNFα level compound X at concentration Y−minimal TNFα levels)/(maximal TNFα levels−minimal TNFα levels))×100]. Where compounds are tested at 8 concentrations (1/3 serial dilution), EC50-values can be calculated by curve fitting of the means of the PIN data achieved for a compound at each test concentration. […]

Compound	EC50 (MMP1 expression by SFs)	EC50 [1]
c1cn2c(-c3cn[nH]c3)cnc(Nc3ccc(N4CCOCC4)cc3)c2n1 [Compound 1, (4-Morpholin-4-yl-phenyl)-[5-(1H-pyrazol-4-yl)-imidazo[1,2-a]pyrazin-8-yl]-amine]	> 1000 nM	> 1000 nM
NC(=O)c1cc(-c2cnc(Nc3ccc(N4CCOCC4)cc3)c3nccn23)cs1 [Compound 177, 4-[8-(4-Morpholin-4-yl-phenylamino)-imidazo[1,2-a]pyrazin-5-yl]-thiophene-2-carboxylic acid amide]	101 to 500 nM	> 1000 nM
NC(=O)c1coc(-c2cnc(Nc3ccc(N4CCOCC4)cc3)c3nccn23)c1 [Compound 179, 5-[8-(4-Morpholin-4-yl-phenylamino)-imidazo[1,2-a]pyrazin-5-yl]-furan-3-carboxylic acid amide]	101 to 500 nM	> 1000 nM
NC(=O)c1ccc(-c2cnc(Nc3ccc(N4CCOCC4)cc3)c3nccn23)cc1 [Compound 13]	501 to 1000 nM	> 1000 nM
NC(=O)c1ccc(-c2cnc(Nc3ccc(N4CCOCC4)cc3)c3nccn23)s1 [Compound 152]	101 to 500 nM	101 to 500 nM
NC(=O)c1cc(-c2cnc(Nc3ccc(N4CCOCC4)cc3)c3nccn23)co1 [Compound 203]	501 to 1000 nM	> 1000 nM
O=C1NCc2cc(-c3cnc(Nc4ccc(N5CCOCC5)cc4)c4nccn34)ccc21 [Compound 178, 5-[8-(4-Morpholin-4-yl-phenylamino)-imidazo[1,2-a]pyrazin-5-yl]-2,3-dihydro-isoindol-1-one]	101 to 500 nM	1 to 100 nM
CN1CCN(c2ccc(Nc3ncc(-c4cc[nH]c(=O)c4)n4ccnc34)cc2)CC1 [Compound 102, 4-{8-[4-(4-Methylpiperazin-1-yl)-phenylamino]imidazo[1,2-a]pyrazin-5-yl}-1H-pyridin-2-one]	> 1000 nM	> 1000 nM
O=c1cc(-c2cnc(Nc3ccc(N4CCOCC4)cc3)c3nccn23)cc[nH]1 [Compound 85, 4-[8-(4-Morpholin-4-yl-phenylamino)imidazo[1,2-a]pyrazin-5-yl]-1H-pyridin-2-one]	501 to 1000 nM	> 1000 nM
